Experiments:
P388 [1] = test: Antitumor activity in CDF1-SLC mouse injected with mouse P388 cells assessed as mean survival time at 0.78 mg/kg, ip treated for 5 days (reference value: 11.2 +/- 0.84 days); assay type: functional
EL4 = test: Cytotoxicity against C57BL/6 mouse EL4 cells assessed as reduction in growth after 3 days; assay type: functional; conditions: C57BL/6, EL4, 72 h
[2] = Toxicity in CDF1-SLC mouse injected with mouse P388 cells assessed as change in body weight at 0.78 mg/kg, ip treated for 5 days and measured on day 1 and 10 (reference value: 5.3g); assay type: organism-based; conditions: in vivo, 120 h
MDA-MB-231 = test: Cytotoxicity against human MDA-MB-231 cells assessed as reduction in growth after 4 days by HCS assay; assay type: functional; conditions: MDA-MB-231, 96 h
HL-60 = test: Cytotoxicity against human HL60 cells assessed as reduction in growth after 24 hrs by MTT assay; assay type: functional; conditions: HL-60, 24 h
NCI-H69 = test: Cytotoxicity against human H69 cells assessed as reduction in growth after 7 days by MTT assay; assay type: functional; conditions: NCI-H69, 168 h
Mus musculus = test: Immunosuppressive activity in […] mouse injected with C57BL/6 mouse EL4 cells assessed as cytotoxic T cells generation by measuring specific lysis level at 5 mg/kg, ip treated for 2 to 15 days and measured on day 16 by gamma scintillation counter method (reference value: 18.6 +/- 4.15%); assay type: functional
[3] = Toxicity in CDF1-SLC mouse injected with mouse P388 cells assessed as change in body weight at 1.56 mg/kg, ip treated for 5 days and measured on day 1 and 10 (reference value: 5.3g); assay type: organism-based; conditions: in vivo, 120 h
DC3F = test: Cytotoxicity against hamster DC-3F cells assessed as reduction in growth after 4 days by HCS assay; assay type: functional; conditions: Cricetulus griseus, 96 h
T98G = test: Cytotoxicity against human T98G cells assessed as reduction in growth after 4 days by MTS assay; assay type: functional; conditions: 96 h
A549 = test: Cytotoxicity against human A549 cells assessed as reduction in growth after 4 days by HCS assay; assay type: functional; conditions: A549, 96 h
K562/Adr = test: Cytotoxicity against human K562/ADR cells assessed as reduction in growth after 4 days by MTT assay; assay type: functional; conditions: 96 h
HeLa = test: Cytotoxicity against human HeLa cells assessed as reduction in growth; assay type: functional
[4] = Cytotoxicity against human H69/VDS cells assessed as reduction in growth after 7 days by MTT assay; assay type: functional; conditions: 168 h
[5] = Toxicity in CDF1-SLC mouse injected with mouse P388 cells assessed as change in body weight at 6.25 mg/kg, ip treated for 5 days and measured on day 1 and 10 (reference value: 5.3g); assay type: organism-based; conditions: in vivo, 120 h
P388 [6] = test: Cytotoxicity against mouse P388 cells assessed as reduction in growth after 24 hrs by MTT assay; assay type: functional; conditions: P388, 24 h
[7] = Cytotoxicity against rat KNRK cells assessed as reduction in growth; assay type: functional
K562 = test: Cytotoxicity against human K562 cells assessed as reduction in growth after 4 days by MTT assay; assay type: functional; conditions: K562, 96 h
P388 [8] = test: Antitumor activity in CDF1-SLC mouse injected with mouse P388 cells assessed as mean survival time at 3.13 mg/kg, ip treated for 5 days (reference value: 11.2 +/- 0.84 days); assay type: functional
[9] = Cytotoxicity against human H69/Txl cells assessed as reduction in growth after 7 days by MTT assay; assay type: functional; conditions: 168 h
[10] = Toxicity in CDF1-SLC mouse injected with mouse P388 cells assessed as change in body weight at 3.13 mg/kg, ip treated for 5 days and measured on day 1 and 10 (reference value: 5.3g); assay type: organism-based; conditions: in vivo, 120 h
MCF7 = test: Cytotoxicity against human MCF7 cells assessed as reduction in growth after 3 days by MTT assay; assay type: functional; conditions: MCF7, 72 h
P388 [11] = test: Antitumor activity in CDF1-SLC mouse injected with mouse P388 cells assessed as mean survival time at 6.25 mg/kg, ip treated for 5 days (reference value: 11.2 +/- 0.84 days); assay type: functional
[12] = Cytotoxicity against hamster VCRd5L cells assessed as reduction in growth after 4 days by HCS assay; assay type: functional; conditions: Cricetulus griseus, 96 h
P388 [13] = test: Antitumor activity in CDF1-SLC mouse injected with mouse P388 cells assessed as mean survival time at 1.56 mg/kg, ip treated for 5 days (reference value: 11.2 +/- 0.84 days); assay type: functional

C/C=C/C[C@H](C)[C@@H](OC)[C@@H](C)[C@H](O)C[C@H]1OC(=O)C=C[C@H]1CC [PIRONETIN]
MST (P388 [1]): 11.2 days
GI50 (EL4): 15 nM
Activity [2]: 3.7 g
GI50 (MDA-MB-231): 4.6 nM
GI50 (HL-60): 20 nM
GI50 (NCI-H69): 17.5 nM
Activity (Mus musculus): 7.4%
Activity [3]: 0.5 g
GI50 (DC3F): 9.5 nM
GI50 (T98G): 7.5 nM
GI50 (A549): 7.5 nM
GI50 (K562/Adr): 16 nM
GI50 (HeLa): 30 nM
GI50 [4]: 20.3 nM
Activity [5]: -2.6 g
GI50 (P388 [6]): 100 nM
GI50 [7]: 30 nM
GI50 (K562): 17.3 nM
MST (P388 [8]): 13.3 days
GI50 [9]: 11.5 nM
Activity [10]: -0.1 g
GI50 (MCF7): 5 nM
MST (P388 [11]): 14.3 days
GI50 [12]: 31 nM
MST (P388 [13]): 11.7 days
